In patent US12606528B2, “Methods and materials for inhibiting NF-kB activity” (University of Pittsburgh - Of the Commonwealth System of …, priority 2019, dated 2026):

What was measured:
TNF release = test: TNF assay: TNF release from LPS-stimulated human PBMCs (TNF ELISA); type: cell-based; conditions: PBMC; human PBMCs; compounds 2 hours before LPS (10 ng/ml) for 18 hours; supernatant TNF ELISA; read-out: IC50 (TNF assay)
How it was run: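 Human PBMCs at 10k/well pretreated with compound dilutions 2 h, then stimulated with LPS (10 ng/mL) for 18 h. TNF in supernatants quantified by ELISA; IC50 for inhibition of TNF release fitted from concentration–response.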

NF-κB = NF-κB assay: THP1-NF-κB-LUC cells, LPS-stimulated secreted luciferase; type: cell-based; conditions: THP1-NF-κB-LUC cells; compounds 2 hours before LPS (10 ng/mL) for 18 hours; secreted luciferase; read-out: IC50 (NF-κB assay)
How it was run: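 THP1-NF-κB-LUC cells (25k/well) were pretreated with compounds for 2 h, then stimulated with LPS (10 ng/mL) for 18 h. Secreted luciferase was measured and normalized to vehicle, and IC50 was fitted from the concentration series.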

Compound	IC50 (TNF release)	IC50 (NF-κB)
CCC1Oc2cc(S(=O)(=O)Nc3ccc(C(C)C)cc3)c(Br)cc2N(C)C1=O (centres unmarked) [BC19934]	1000 to 10000 nM	100 to 1000 nM
CCC1Oc2c(cc(Br)cc2S(=O)(=O)Nc2ccc(OC)cc2)N(C)C1=O (centres unmarked) [BC19935]	1000 to 10000 nM	< 100 nM
CCC1Oc2cc(S(=O)(=O)Nc3ccc(OC)cc3)c(Br)cc2N(C)C1=O (centres unmarked) [BC19936]	> 10000 nM	< 100 nM
CCC1Oc2c(cc(Br)cc2S(=O)(=O)Nc2ccc(C)c(Cl)c2)N(C)C1=O (centres unmarked) [BC19937]	1000 to 10000 nM	< 100 nM
CCC1Oc2cc(S(=O)(=O)Nc3ccc(C)c(Cl)c3)c(Br)cc2N(C)C1=O (centres unmarked) [BC19938]	1000 to 10000 nM	100 to 1000 nM
COc1ccc2[nH]cc(S(=O)(=O)c3ccc(F)c(F)c3)c(=O)c2n1 [BC 19203]	> 10000 nM	1000 to 10000 nM
O=S(=O)(c1ccc(Br)cc1)c1cnccc1O [BC 19460]	> 10000 nM	> 10000 nM
